Our source for the GI50 and TGI values is PubChem BioAssay (NCI).

Holding throughout (assay): growth of human tumour cells (NCI), 48 h
Assay [1] deals with 786-0 renal.
Assay [2] concerns HCC-2998 colon.
For assay [3], the system named is HCT-116 colon.
Assay [4] has as its system HS 578T breast.
In assay [5] the test system is M14 melanoma.
In assay [6] the test system is OVCAR-3 ovarian.
The test system of assay [7] is OVCAR-5 ovarian.
Assay [8] concerns SF-539 CNS.
The test system of assay [9] is SNB-75 CNS.
Assay [10] deals with SW-620 colon.

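Cells were grown in 96-well plates and exposed to each compound for 48 hours at five concentrations; endpoints were interpolated linearly between bracketing concentrations, or set to the highest concentration if not reached. Here, GI50 denotes the concentration required for 50% inhibition of growth. TGI marks complete inhibition of growth.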 Where only a bound is given, the exact number is not on record here.

On to `C1=C/COCc2cc(ccc2OCCN2CCCC2)Nc2nccc(n2)-c2ccc(o2)COC/1`, for which the GI50 in [1] was 2.71 µM; in [2], 2.18 µM; in assay [3] it was 757 nM; in assay [4], 1.89 µM; in [5], 1.56 µM; in assay [6], 1.99 µM. Moreover, the GI50 in assay [7] was 0.716 µM; in assay [8] it was 1.72 µM; in assay [9] it was 1.25 µM; in assay [10], 2.36 µM. In addition, the TGI in assay [1] was found to be 13 µM; in assay [2], 7.93 µM; in assay [3], 10.6 µM; in assay [4], 6.77 µM; in [5] it was 9.09 µM; in assay [6] it was 8.48 µM. Also, the TGI in assay [7] was determined as 3.8 µM; in [8], 3.33 µM; in assay [9], 2.75 µM; in assay [10], 11.7 µM.

Consider `O=C(Nc1ccc(-n2ccc3c(NC(=O)c4ccccc4)ncnc32)cc1)c1cccc(C(F)(F)F)c1`, for which the GI50 was 2.91 µM in assay [1]; 4.96 µM in assay [2]; 139 nM in [3]; 3.65 µM in [4]; 2.85 µM in [5]; 4.37 µM in [6]. The GI50 in assay [7] is 6.18 µM; in assay [8], 1.11 µM; in assay [9], 3.58 µM; in assay [10], 1.05 µM. For the same compound, the TGI stood at 21.9 µM in assay [1]; 27 µM in assay [2]; 15.9 µM in assay [3]; 33.3 µM in assay [4]; 17.6 µM in assay [5]; 20.9 µM in assay [6]. The TGI in assay [7] was 31.7 µM; in assay [8], more than 93.3 µM; in assay [9], 22.3 µM; in assay [10], 18.8 µM.

Take `CN(C)c1nc(=NCc2ccco2)ss1`: the TGI in [1] was 16.9 µM; in assay [2], more than 79.1 µM; in [3], 35 µM; in assay [4] it was 78 µM; in [5], more than 53.8 µM; in [6], 63 µM. For the same compound, the TGI in assay [7] is more than 55.6 µM; in assay [8], 19.8 µM; in [9], 53.9 µM; in assay [10], 61.9 µM.

Turning to `O=c1cc(-c2ccc(O)cc2)oc2cc(O[C@@H]3O[C@H](CO)[C@@H](O)[C@H](O)[C@H]3O)cc(O)c12`, the TGI in assay [1], in assay [2], in assay [3], in [4], in [5] and in assay [6] was more than 100 µM throughout. The TGI in [7], in [8], in assay [9] and in assay [10] was more than 100 µM in each case.

In the case of `NC(=O)[C@@H](CC1CC1)[C@@H](CCC(F)(F)F)C(=O)N[C@H]1N=C(c2ccccc2)c2cccc(F)c2NC1=O`, the GI50 in [1] is 17.8 µM; in assay [2] it was more than 100 µM; in assay [3], more than 100000 nM; in assay [4], more than 100 µM; in assay [5], more than 100 µM; in [6], more than 100 µM. The GI50 is more than 100 µM in assay [7], 17.4 µM in [8], 16.3 µM in assay [9] and more than 100 µM in assay [10]. In addition, the TGI was 53.9 µM in assay [1]; more than 100 µM in assay [2]; more than 100 µM in [3]; more than 100 µM in assay [4]; more than 100 µM in assay [5]; more than 100 µM in assay [6]. Also, the TGI in assay [7] was more than 100 µM; in assay [8], 38.9 µM; in [9] it was more than 100 µM; in assay [10] it was more than 100 µM.

Take `Cc1cc(Nc2nc(C(=O)Nc3ccccc3)nc3ccccc23)n[nH]1`: the GI50 in [1] is 10.1 µM; in assay [2], 17.7 µM; in assay [3], 4700 nM; in assay [4], 7.68 µM; in assay [5] it was 3.48 µM; in [6], 11.5 µM. For the same compound, the GI50 in assay [7] is more than 25 µM; in [8] it was more than 25 µM; in assay [9], 6.8 µM; in assay [10], 9.7 µM. In addition, the TGI in assay [1], in assay [2], in assay [3], in [4], in assay [5] and in assay [6] was more than 25 µM each time. Also, the TGI in [7], in [8], in assay [9] and in assay [10] was more than 25 µM each time.

Turning to `CNNC(=N\S(=O)(=O)c1cc(C)c(Cl)cc1SCc1ccccc1)/N=C/c1ccc([N+](=O)[O-])s1`, the GI50 in assay [1] is more than 100 µM; in [2] it was 1.29 µM; in [3], 1530 nM; in assay [4] it was more than 100 µM; in assay [5], 9.97 µM; in assay [6] it was more than 44.1 µM. The GI50 in [7] was more than 100 µM; in assay [8] it was more than 100 µM; in assay [9] it was more than 100 µM; in assay [10] it was 30.9 µM. Moreover, the TGI in assay [1] was more than 100 µM; in [3], more than 100 µM; in assay [4], more than 100 µM; in assay [5], more than 78.5 µM; in assay [6], more than 100 µM; in [7], more than 100 µM. Further, the TGI in assay [8], in assay [9] and in assay [10] was more than 100 µM throughout.
